Data from patent US8445502B2, “Pharmaceutical formulations comprising salts of a protein kinase inhibitor and methods of using same” (Astex Pharmaceuticals, Inc., priority 2007, dated 2013).
Read-outs that look alike come from different tables or passages of the source.

Assays:
[1] = system: HT-29 colorectal cancer cells; assay type: in vivo
Protocol: MP470 and MP470 HCl were tested against different tumor types in athymic nude mice as summarized below (Table 8). Various formulations and routes were evaluated. HT-29 colorectal cancer cells and SB-CL2 melanoma cells were implanted subcutaneously, while A549 lung cancer cells, MiaPaCa-2 pancreatic cancer cells, TT medullary thyroid cancer cells, and OVCAR-3 ovarian cancer cells were implanted […] in the hind flank of mice. All animals were allowed to develop medium-sized (80-125 mg) tumors, before initiation of dosing. Tumor volume and mouse bodyweight were followed over the course of the study.
HT-29 Colorectal Model—Eighteen athymic nude mice were injected subcutaneously with HT-29 colorectal cancer cells. After tumor formation, animals received either 10 or 20 mg/kg MP470 by intraperitoneal (IP) injection using a qd5×2 wk schedule. On Day 5 of treatment, tumor growth rates in vehicle control animals were 19.5 mm3/d, while MP470-treated animals had tumor growth rates of 1.4 mm3/d (10 mg/kg) and −5.0 mm3/d (20 mg/kg). Tumor growth continued to decline throughout the 14 days of study. On Day 14, the tumor growth rates were 16.4 mm3/d (vehicle) compared to 4.3 mm3/d (10 mg/kg) and 5.5 mm3/d (20 mg/kg) in treated animals.

[2] = Acute intravenous toxicity in rat, second study; assay type: in vivo; settings: single intravenous dose
Protocol: In the second IV administration study of MP470 free base, six groups of 6 rats were to be exposed to either vehicle alone or MP470 at 0.625, 1.25, 2.5, 5, or 10 mg/kg. Dosing was administered via a tail vein over approximately 30 minutes. Animals in each group were given a single intravenous dose of the test substance. Animals in the lowest dose group were dosed first, followed by at least a 10 minute period to observe any effects. If no effects were observed or if effects were observed but deemed acceptable the dosing went to the next highest dose using the same progression criteria. Progression was stopped when unacceptable, adverse effects (e.g., severe convulsions or death) occurred or when the highest dose was successfully administered without adverse effects. A control group (formulation vehicle: TV-13) was included for relevant comparison. […] Dosing occurred on Day 0 and termination on Day 4. On Day 4, the animals were sacrificed and subjected to complete, documented, gross necropsy.
Mortality (50%) occurred in the high dose group (10 mg/kg). […] Under the conditions of this study, a maximum tolerated acute dose in the rat for MP470 was determined to be 5 mg/kg. However, a ‘no observable adverse effect level’ could not be determined due to adverse observations apparently associated with vehicle administration.

A549 NSCLC cells = assay: Sensitization of NSCLC cells to carboplatin; assay type: cell-based; settings: Homo sapiens; A549, single agent
Protocol: (§1) The non-small cell lung cancer cell lines A549 and NCI-H647 were used for these experiments. […] The IC50 concentrations observed for carboplatin against both of these cell lines was consistent with this.
(§2) Two sub-IC50 doses of MP470.HCl were tested in combination with carboplatin to evaluate possible synergism between these agents and consequently a lower IC50 value for carboplatin in each of the cell lines.
(§3) MP470.HCl was able to dramatically decrease the IC50 of carboplatin in these cells.

NCI-H647 NSCLC cells = assay: Sensitization of NSCLC cells to carboplatin; assay type: cell-based; settings: Homo sapiens; NCI-H647, single agent
Protocol: as §1, §2, §3

Rad51 = Rad51 immunohistochemistry in dog colon and skin; assay type: in vivo; settings: for Rad 51 Result: 2 wk post treatment with 300 mg/kg/day × 28, dog 302786
Protocol: A study was performed to develop a testing procedure for validation of IHC Biomarker RAD51 for the staining of tissue micro arrays (TMA). An experimental […] antibody was used (Spring Bioscience Anti-RAD51) and run using testis and lung as control tissues. The antibody was run using the Dako Envision+ detection kit. The incubation times ranged from 15 minutes to 60 minutes. Each experiment was run with and without an antigen retrieval solution with a pH of 6.0. The dilutions used for the Spring Bioscience Anti-RAD51 ranged from 1:50 to 1:500. The best results were obtained when incubated for 30 minutes, with a dilution of 1:50, using the Dako Envision+ detection kit, with antigen retrieval at the pH of 6.0 based on manual scoring by a board certified pathologist. […] Rare nuclear staining was observed.
A study was conducted to investigate the changes in RAD51 expression levels after chronic treatment with MP470 hydrochloride salt two weeks post treatment with oral once daily dosing for 28 days at 300 mg/kg compared to the control (vehicle only, no drug) to healthy dogs. Tissue specimens from the colon and skin were analyzed for RAD51 expression using the procedure described above. The data in Table 9 confirm that MP470.HCl suppresses and sustains the suppression of RAD51 expression levels in normal proliferating tissues such as in colon and skin.
Dose-response effects of MP470.HCl on Rad51 were evaluated in normal beagle dogs that were administered MP470.HCl orally. Colon and skin tissues were obtained from five different groups, including vehicle control group, three groups of differing dose levels of MP470.HCl following a 28 day daily treatment with MP470.HCl, and a post-treatment recovery group two weeks after treatment daily for 28 days with 300 mg/kg of MP470.HCl. These tissue specimens were stained for Rad51 using immunohistochemistry (IHC) techniques on an automated staining platform. A mouse Anti-Rad51 antibody was used for this purpose. Positive and negative controls were used to validate the staining procedure. The data is reported as a percentage based on the scoring of the staining intensity by a board-certified pathologist. Staining intensity was reported as mean percent for n=3 in all cases except the recovery group, where n=1.

OVCAR-3 cells = assay: OVCAR-3 cell proliferation; assay type: cell-based; settings: Homo sapiens
Protocol: The IC50 for MP470.HCl on OVCAR-3 cells proliferation was 0.9 μM (FIG. 4). It appears to have a cytostatic effect on cancer cells in addition to being cytotoxic.

Q: For `S=C(NCc1ccc2c(c1)OCO2)N1CCN(c2ncnc3c2oc2ccccc23)CC1` [MP470, 4-[1]benzofuro[3,2-d]pyrimidin-4-yl-N-(1,3-benzodioxol-5-ylmethyl)piperazine-1-carbothioamide], which tumor growth rate ([1]; Day 5, 10 mg/kg IP qd5×2 wk (vehicle 19.5)) is on record?
A: 1.4 mm3/d

Q: And the tumor growth rate ([1]; Day 5, 20 mg/kg IP qd5×2 wk (vehicle 19.5))?
A: −5.0 mm3/d

Q: And the tumor growth rate ([1]; Day 14, 10 mg/kg IP (vehicle 16.4))?
A: 4.3 mm3/d

Q: And the tumor growth rate ([1]; Day 14, 20 mg/kg IP (vehicle 16.4))?
A: 5.5 mm3/d

Q: And the “Outcome: tumor growth” value ([1]; HT-29 colon, IP 10, 20 mg/kg, (qd × 5) × 2 w, TV-13)?
A: tumor growth was slowed but not reversed

Q: What about the “maximum tolerated acute dose” value [2] of the same compound?
A: 5 mg/kg

Q: For `Cl.S=C(NCc1ccc2c(c1)OCO2)N1CCN(c2ncnc3c2oc2ccccc23)CC1` [MP470.HCl, 4-[1]benzofuro[3,2-d]pyrimidin-4-yl-N-(1,3-benzodioxol-5-ylmethyl)piperazine-1-carbothioamide hydrochloride], which IC50 (A549 NSCLC cells) is on record?
A: 6.9 µM

Q: What about the IC50 (NCI-H647 NSCLC cells) of the same compound?
A: 7.86 µM

Q: And the “Rad51 staining Skin (%)” value (Rad51; 30 mg/Kg oral daily 28 days, n=3 (vehicle 20))?
A: 14%

Q: And the “Rad51 staining Colon (%)” value (Rad51; 30 mg/Kg oral daily 28 days, n=3 (vehicle 71))?
A: 61%

Q: What about the “Rad51 staining Skin (%)” value (Rad51; 100 mg/Kg oral daily 28 days, n=3 (vehicle 20)) of the same compound?
A: 17%

Q: And the “Rad51 staining Colon (%)” value (Rad51; 100 mg/Kg oral daily 28 days, n=3 (vehicle 71))?
A: 56%

Q: And the “Rad51 staining Skin (%)” value (Rad51; 300 mg/Kg oral daily 28 days, n=3 (vehicle 20))?
A: 11%

Q: What about the “Rad51 staining Colon (%)” value (Rad51; 300 mg/Kg oral daily 28 days, n=3 (vehicle 71)) of the same compound?
A: 35%

Q: What about the “suppression of Rad51 in tissues of dogs” value (Rad51; 30, 100, 300 mg/kg oral daily 28 days) of the same compound?
A: dose-dependent suppression of Rad51

Q: What about the “Rad 51 Result” value (Rad51; Colon) of the same compound?
A: 58%

Q: What about the “Rad51 staining Skin (%)” value (Rad51; Recovery (2 wk post treatment with 300 mg/kg), n=1 (vehicle 20)) of the same compound?
A: 7%

Q: What about the “Rad51 staining Colon (%)” value (Rad51; Recovery (2 wk post treatment with 300 mg/kg), n=1 (vehicle 71)) of the same compound?
A: 19%

Q: What about the “Rad 51 Result” value (Rad51; Skin) of the same compound?
A: 12%

Q: And the IC50 (OVCAR-3 cells)?
A: 0.9 µM
